Measured values as given in patent EP0610377B1, “TRI-SUBSTITUTED TETRAHYDROFURAN ANTIFUNGALS” (SCHERING CORPORATION, priority 1991, dated 1993).

Tests used:
Format in all cases: in vivo
[1] = tested on: Aspergillus flavus; test: Aspergillus flavus pulmonary infection model in compromised mice, oral treatment; details: for %SURVIVAL / %ANIMALS NEG: 18 days post infection; for %SURVIVAL: compromised CF-1 mice; for %ANIMALS NEG: negative = <10 colonies
From the text: The in vivo oral antifungal activity of the compounds of Example 23-26 were compared to those of itraconazole, fluconazole and saperconazole in an Aspergillus pulmonary infection model in mice. The procedure of David Loebenberg et al. entitled "Sch 42427, The Active Enantiomer of Antifungal agent Sch 39304: In Vitro and In Vivo Activity" Antimicrobial Agents and Chemotherapy (1992), 36 498-501 was used. The Aspergillus flavus pulmonary model was run in the following manner Male, CF-1 mice weighing 20 grams were compromised with cortisone acetate (100 mg/kg), administered subcutaneously, once daily for 3 days. In addition, to prevent bacterial disease, tetracycline HCL (300 mg/1) was added to the drinking water and given ad libitum. On day 2 of compromising, mice were infected in an inhalation chamber, first described by Piggot and Emmons in 1960 and modified by us. The chamber is a 1 liter pyrex, thick-walled flask with 8 tubular side-arms that extend into the flask. Each side-arm is a pyrex tube of 14 cm length, constricted to a 1 cm opening inside the flask. The bottom of the flask was covered with a malt extract agar medium on which a sporulating culture of A. flavus ATCC 24133 was grown for 13 days at room temperature. The top of the flask was closed with a #10 stopper through which passed a glass tube attached by rubber tubing to a 60 mL syringe. Mice were placed in each of the side arms and pushed to the bottoms so that their nares extended beyond the open end of the tube and over the agar. Cotton plugs were then inserted behind the mice to hold them in place. By pumping the 60 mL syringe twice, air was forced over the culture and produced a cloud of spores. Mice were exposed to the spore cloud for one minute. Within 15-30 minutes after exposure, a number of mice were sacrificed and lung tissue samples homogenized for culture to determine the number of inhaled conidia. Oral treatment began 24 h post-infection with doses of 5 to 250 mg of drug/kg in ethanol; vehicle (115 ml of Emulphor EL-719P, GAF, Wayne, NJ; and 5 ml of 20% w/v lactic acid per liter of water), 10:90 v/v, once daily for 4 days.
The procedure of Example 31 was used to compare the in vivo oral antifungal activity of (±)-5R/S-(cis)-4-[4-[4-[4-[[5-(2,4-difluorophenyl)-5-(1H-1,2,4-triazol-1-ylmethyl) tetrahydrofuran-3-yl]methoxy-phenyl-1-piperazinyl]phenyl]-2,4-dihydro-2[(R/S)-(1-methylpropyl)]-3H-1,2,4-triazol-3-one with (±)-2R/S-(cis)-1-[4-[[2-(2,4-difluorophenyl)-2-(1H-1,2,4-triazol-1-ylmethyl) tetrahydro-4-furanyl]methoxy]phenyl]-4-(1-methylethyl)piperazine of Example 68 of USP 5,039,676 in an Aspergillus pulmonary infection model described in Example 31. […]
The procedures of Examples 31 and 34 were used.

[2] = tested on: C. albicans C-43; test: Candida systemic model in CF1 mice infected IV with C. albicans C-43, oral treatment; details: for %SURVIVAL: day 4 post-infection; for CFUs (GM): day 4
Experimental: The compounds of Examples 23-26 and itraconazole, fluconazole, and saperconazole were tested for in vivo oral antifungal activity in a Candida systemic model using CF1 male mice , average weight 20 g, Harlan Sprague Dawley, Inc., Indianapolis, Ind. infected by IV injection into the tail vein of C. albicans C-43 (5 million CFUs). […] Oral efficacy was measured after four (4) days by percent survival and by the number of organisms remaining in the kidneys i.e., the Colony Forming Units (CFUs). The mice were sacrificed and the kidneys of individual mice were homogenized in sterile saline, diluted and spread onto Mycosel agar. Colony counts were determined after 48 hours at 37°C. For calculation of geometric means, mice that died during the experiment were considered to have 10^9 CFUs/kidneys (based on numerous previous experiments).

[3] = tested on: Aspergillus flavus; test: Aspergillus flavus pulmonary infection model in compromised mice, oral treatment; details: for %SURVIVAL / %ANIMALS NEG: 33 mg/kg PO [3RX/DAY] for 4 days, 18 days post infection; for %SURVIVAL: compromised CF-1 mice; for %ANIMALS NEG: negative = <10 colonies
[4] = tested on: C. albicans C-65; test: Candida systemic model in normal and compromised CF1 mice infected with C. albicans C-65, oral treatment; details: for % S (Percent Survival): day 4 post-infection; for CFUs (GM): day 4, geometric mean of the logarithms of CFU in the kidneys
Experimental: The compounds of Examples 23-26 and itraconazole, fluconazole, and saperconazole were tested for in vivo oral antifungal activity in a Candida systemic model using CF1 male mice , average weight 20 g, Harlan Sprague Dawley, Inc., Indianapolis, Ind. infected by IV injection into the tail vein of C. albicans C-43 (5 million CFUs). The drugs were dissolved in polyethylene glycol-200 (PEG-200) and tested by orally administering 50, 25 and 10 mpk of each drug 4 hours post infection and once daily for 3 more days. Oral efficacy was measured after four (4) days by percent survival and by the number of organisms remaining in the kidneys i.e., the Colony Forming Units (CFUs). The mice were sacrificed and the kidneys of individual mice were homogenized in sterile saline, diluted and spread onto Mycosel agar. Colony counts were determined after 48 hours at 37°C. For calculation of geometric means, mice that died during the experiment were considered to have 10^9 CFUs/kidneys (based on numerous previous experiments).
The compounds of Examples 23-24 and itraconazole, fluconazole, were tested for in vivo oral antifungal anctivity in a Candida systemic model using normal and compromised CF1 mice infected with C. albicans C-65 (5 million CFUs). The procedure of Example 33 was followed. The drugs were dissolved in polyethylene glycol-200 ("PEG-200) at room temperature and tested by orally administering 100, 50, 25, 10 and 1 mpk of each drug. Oral efficacy was measured by percent survival and by the number of organisms remaining in the kidneys (CFUs) after four days. […] The pharmaceutical composition of the preferred compound of formula IIb of Eample 24 in hydroxypropyl beta cyclodextrin ("HPβCD") having 7.4 hydroxypropyl groups per HPβCD (obtained from Pharmatec, Inc., Alachua, FL 32615) was prepared by admixing the appropriate amount of the compound IIa with a 40% (w/v) solution of HPβCD (4 g of HPβCD per 10 mL of purified water). Gentle heating was used to form a clear solution. For the 10 mpk dose, 12 mg of Ha was added to 6 mL of a 40% w/v solution of HPβCD. For dilutions, sterile water was added to the solution with mixing. The pharmaceutical composition of itraconazole and the Pharmatec HPβCD described above was prepared as follows. Propylene glycol (10 mL) was admixed with 0.95 mL of concentrated HCI at 40°-45°C with stirring. Itraconazole (2.5 g) was added thereto and stirring was continued until homogeneous. The mixture so formed was cooled to 20° to 30°C and admixed with a solution of 60 g of HPβCD in 40 mL of purified water to form a clear solution. The pH was adjusted to a value of 1.9-2.1 with 10N NaOH and sufficient purified water added (with mixing) to a final volume of 100 mL. For dilutions, sterile water was added to the itraconazole - HPβCD.

[5] = 33 mg/kg PO once a day for 4 days
[6] = 66 mg/kg PO once a day for 4 days
[7] = 100 mg/kg PO once a day for 4 days
[8] = 10 MPK PO in PEG-200, 1 a day x 4 days
[9] = 10 MPK PO in PEG-200, geometric mean of the logarithms of CFU remaining in the kidneys (dead mice counted as 10^9)
[10] = 25 MPK PO in PEG-200, 1 a day x 4 days
[11] = 25 MPK PO in PEG-200, geometric mean of the logarithms of CFU remaining in the kidneys (dead mice counted as 10^9)
[12] = 50 MPK PO in PEG-200, 1 a day x 4 days
[13] = 50 MPK PO in PEG-200, geometric mean of the logarithms of CFU remaining in the kidneys (dead mice counted as 10^9)
[14] = 50 mg/kg PO in PEG-200, OD for 4 days, CF-1 mice
[15] = 100 mg/kg PO in PEG-200, OD for 4 days, CF-1 mice
[16] = 200 mg/kg PO in PEG-200, OD for 4 days, CF-1 mice

SMILES | %SURVIVAL [1, 5] [%] | %ANIMALS NEG [1, 5] [%] | %SURVIVAL [1, 6] [%] | %ANIMALS NEG [1, 6] [%] | %SURVIVAL [1, 7] [%] | %ANIMALS NEG [1, 7] [%] | %SURVIVAL [2, 8] [%] | CFUs (GM) [2, 9] | %SURVIVAL [2, 10] [%] | CFUs (GM) [2, 11] | %SURVIVAL [2, 12] [%] | CFUs (GM) [2, 13] | %SURVIVAL [3] [%] | %ANIMALS NEG [3] [%] | Percent Survival After 11 Days [3, 14] | Percent Survival After 11 Days [3, 15] | Percent Survival After 11 Days [3, 16] | other results
CC[C@H](C)n1ncn(-c2ccc(N3CCN(c4ccc(OC[C@H]5CO[C@](Cn6cncn6)(c6ccc(F)cc6F)C5)cc4)CC3)cc2)c1=O [Example 25, (+)-[(5S)-cis]-4-[4-[4-[4-[[5-(2,4-Difluorophenyl)-5-(1H-1,2,4-triazol-1-ylmethyl)tetrahydrofuran-3-yl]methoxy]phenyl]-1-piperazinyl]phenyl]-2,4-dihydro-2-[(1S)-(1-methylpropyl)]-3H-1,2,4-triazol-3-one] | 0 | 0 | 0 | 0 | 10 | 0 | 0 | 9.00 | 0 | 9.00 | 0 | 9.00 | 20 | 10 | – | – | – | –
CC[C@@H](C)n1ncn(-c2ccc(N3CCN(c4ccc(OC[C@H]5CO[C@](Cn6cncn6)(c6ccc(F)cc6F)C5)cc4)CC3)cc2)c1=O [Example 26, (+)-[(5S)-cis]-4-[4-[4-[4-[[5-(2,4-Difluorophenyl)-5-(1H-1,24-triazol-1-ylmethyl)tetrahydrofuran-3-yl]methoxy]phenyl]-1-piperazinyl]phenyl]-2,4-dihydro-2-[(1R)-(1-methylpropyl)]-3H-1,2,4-triazol-3-one] | 0 | 0 | 0 | 0 | 20 | 0 | 0 | 9.00 | 0 | 9.00 | 20 | 7.84 | 0 | 0 | – | – | – | –
CC(C)N1CCN(c2ccc(OC[C@@H]3CO[C@@](Cn4cncn4)(c4ccc(F)cc4F)C3)cc2)CC1 (racemic) [Example 68 of US Patent 5,039,676, (±)-2R/S-(cis)-1-[4-[[2-(2,4-difluorophenyl)-2-(1H-1,2,4-triazol-1-ylmethyl)tetrahydro-4-furanyl]methoxy]phenyl]-4-(1-methylethyl)piperazine, reference compound] | – | – | – | – | – | – | – | – | – | – | – | – | – | – | 0 | 0 | 0 | oral activity in the Aspergillus pulmonary mouse model ([1]; PO, result in words (active / inactive)): inactive
OC(Cn1cncn1)(Cn1cncn1)c1ccc(F)cc1F [Fluconazole, reference compound] | – | – | – | – | 10 | 0 | – | – | – | – | – | – | – | – | – | – | – | %SURVIVAL ([2]; 1 MPK PO in ETOH/Mon, 1 a day x 4 days): 70%; CFUs (GM) ([2]; 1 MPK PO in ETOH/Mon, geometric mean of the logarithms of CFU remaining in the kidneys): 6.58; %SURVIVAL ([2]; 10 MPK PO in ETOH/Mon, 1 a day x 4 days): 90%; CFUs (GM) ([2]; 10 MPK PO in ETOH/Mon, geometric mean of the logarithms of CFU remaining in the kidneys): 5.68; % S (Percent Survival) ([4]; 600 Rads Mice (compromised), 10 MPK PO in PEG-200, 1/day x 4 days): 20%; CFUs (GM) ([4]; 600 Rads Mice (compromised), 10 MPK PO in PEG-200): 8.01; % S (Percent Survival) ([4]; 600 Rads Mice (compromised), 25 MPK PO in PEG-200, 1/day x 4 days): 50%; CFUs (GM) ([4]; 600 Rads Mice (compromised), 25 MPK PO in PEG-200): 6.91; % S (Percent Survival) ([4]; Normal Mice, 1 MPK PO in PEG-200, 1/day x 4 days): 60%; CFUs (GM) ([4]; Normal Mice, 1 MPK PO in PEG-200): 5.81; % S (Percent Survival) ([4]; Normal Mice, 10 MPK PO in PEG-200, 1/day x 4 days): 80%; CFUs (GM) ([4]; Normal Mice, 10 MPK PO in PEG-200): 5.35
CCC(C)n1ncn(-c2ccc(N3CCN(c4ccc(OC[C@@H]5CO[C@@](Cn6cncn6)(c6ccc(F)cc6F)C5)cc4)CC3)cc2)c1=O (mixture of isomers) [Compound 1 of Table III of Examples 34, (±)-5R/S-(cis)-4-[4-[4-[4-[[5-(2,4-difluorophenyl)-5-(1H-1,2,4-triazol-1-ylmethyl)tetrahydrofuran-3-yl]methoxyphenyl-1-piperazinyl]phenyl]-2,4-dihydro-2[(RS)-(1-methylpropyl)]-3H-1,2,4-triazol-3-one] | – | – | – | – | – | – | – | – | – | – | – | – | – | – | 16.7 | 41.7 | 50.0 | PERCENT SURVIVAL AFTER 5 DAYS (5D) ([3]; head prints 50 mg/kg (third dose column, c3), in PEG-200 daily for 4 days, CF-1 mice): 50
